Format in all cases: cell-based
The subject of experiment [1] is A549 (human non-small-cell-lung cancer cell line). The experiment in a line: CCK-8 antiproliferative assay, A549. As to conditions: 48 h, read-out: IC50, Mean ± SE, A549. In general terms: Formazan colour is commonly taken as a measure of viable cells.
Experiment [2] has as its system Caski (human epithelial cervical cancer cell line). The experiment in a line: CCK-8 antiproliferative assay, Caski. As to conditions: Ca-Ski, 48 h, read-out: IC50, Mean ± SE, Caski.
Experiment [3] deals with HepG2 (human liver carcinoma cell line). The experiment in a line: CCK-8 antiproliferative assay, HepG2. As to conditions: 48 h, read-out: IC50, Mean ± SE, HepG2.
Experiment [4] concerns L-02 (normal human hepatocytes). The experiment in a line: CCK-8 cytotoxicity, L-02 normal cells. An excerpt: (§1) A549 (non-small-cell-lung cancer cell line), Caski (human epithelial cervical cancer cell line), HepG2 (human liver carcinoma cell line), MCF-7 (human breast carcinoma cell line), C42B (human prostate cancer line C42B), L-02 (human normal hepatocytes), RWPE-1 (human prostate epithelial cells) and MCF-10A (human normal mammary epithelial cells) were obtained from National Collection of Authenticated Cell Cultures (Shanghai, China). A549/CDDP (A549 cell line resistant to cisplatin), C42B/ENZR (C42b cell line resistant to Enzalutamide), MCF-7/DOX (MCF-7 cell line resistant to doxorubicin), A2780/TAX (human ovarian cancer cell line A2780 resistant to taxol) and HCT-8/VCR (human ileocecum carcinoma cell lines HCT-8 resistant to vincristine) were kindly provided by Professor Junjian Wang and Professor Xingshu Li at Sun Yat-Sen University, China. […]
(§2) After 24 h, the medium containing different concentrations of tested compounds were added for another 48 h. […] The optical density was recorded with a microplate reader at 570 nm (Thermo Scientific, Varioskan LUX). All the experiments were repeated independently at least three times and the IC50 values were calculated […]

The test system of experiment [5] is MCF-10A (normal human mammary epithelial cells). In words: CCK-8 cytotoxicity, MCF-10A normal cells.
Text: as §1, §2

With `COc1ccc(C(=O)c2ccc3c(ccn3C)c2)c2c1C=CC(C)(C)O2` [compound 14b, (5-methoxy-2,2-dimethyl-2H-chromen-8-yl)(1-methyl-1H-indol-5-yl)methanone], the IC50 in experiment [1] is 0.022 ± 0.002 µM; in experiment [2], 0.037 ± 0.003 µM; in experiment [3], 0.074 ± 0.013 µM; in experiment [4] (Homo sapiens, Hepatocyte, 48 h, CCK-8, normal cells, read-out: IC50, Mean ± SE, L-02), 1.26 ± 0.214 µM; in experiment [5] (Homo sapiens, MCF-10A, 48 h, CCK-8, normal cells, read-out: IC50, Mean ± SE, MCF-10A), 6.26 ± 0.311 µM. Besides, the “Selectivity Ratio” value was found to be 16.97 in experiment [4] (IC50 L-02 / IC50 Hep-G2) and 231.7 in experiment [5] (IC50 MCF-10A / IC50 MCF-7).

Broadly, the IC50 is the concentration needed to halve the response being measured.

Source of the values: paper PMC9921564, “Novel Indole-Containing Hybrids Derived from Millepachine: Synthesis, Biological Evaluation and Antitumor Mechanism Study” (Molecules, 2023).
